Data on twelve compounds can be found in patent US20120252804A1, “COMPOSITION AND METHOD FOR CONTROLLING ARTHROPOD PESTS” (SUMITOMO CHEMICAL COMPANY, LIMITED, priority 2009, published 2012).

Holding throughout (assay type): in vivo
The subject of experiment [1] is brown planthopper (Nilaparvata lugens). Description: Test Example 1: pesticidal effect against brown planthopper by foliage spray treatment of rice. Particulars: composition of the compound and pyriproxyfen; foliage spray on rice seedlings, third-instar larvae, after 5 days; summary of Table 43.
Experiment [2] concerns Sweetpotato Whitefly (Bemisia tabaci). Description: Test Example 2: pesticidal effect of leaf dipping treatment on Sweetpotato Whitefly. Particulars: composition of the compound and pyriproxyfen; cabbage leaf disk with eggs dipped 30 seconds, after 8 days; summary of Table 44.
The test system is the same in experiment [3]. Description: Test Example 4: pesticidal effect of leaf dipping treatment on Sweetpotato Whitefly. Particulars: composition of the compound and pyriproxyfen; cabbage leaf disk with eggs dipped 30 seconds, after 8 days; summary of Table 46.
The test system of experiment [4] is brown planthopper (Nilaparvata lugens). As to the kind of experiment: Test Example 3: pesticidal effect against brown planthopper by foliage spray treatment of rice. As to conditions: composition of the compound and pyriproxyfen; foliage spray on rice seedlings, third-instar larvae, after 5 days; summary of Table 45.

Regarding `FC(F)(F)c1cnc2oc(-c3ccncc3Cl)nc2c1` [Compound 139, 2-(3-chloropyridin-4-yl)-6-(trifluoromethyl)oxazolo[5,4-b]pyridine], the “pesticidal efficacy against brown planthopper (Nilaparvata lugens)” value (from here on “pesticidal efficacy … (Nilaparvata lugens)”) in experiment [1] is recorded as “high pesticidal efficacy”. Further, in experiment [2], the “pesticidal efficacy on Sweetpotato Whitefly (Bemisia tabaci)” value (from here on “pesticidal efficacy … (Bemisia tabaci)”) was “high pesticidal efficacy”.

With `FC(F)(F)Sc1ccc2oc(-c3ccncc3Cl)nc2c1` [Compound 77, 2-(3-chloropyridin-4-yl)-5-(trifluoromethylthio)benzoxazole], in experiment [1], the “pesticidal efficacy … (Nilaparvata lugens)” value is reported as “high pesticidal efficacy”. Also, the “pesticidal efficacy … (Bemisia tabaci)” value in experiment [2] is on record as “high pesticidal efficacy”.

`CSc1cnccc1-c1nc2cc(C(F)(F)F)cnc2o1` [Compound 146, 2-(3-methylthiopyridin-4-yl)-6-(trifluoromethyl)oxazolo[5,4-b]pyridine]: in experiment [1], the “pesticidal efficacy … (Nilaparvata lugens)” value was “high pesticidal efficacy”. Besides, in experiment [2], the “pesticidal efficacy … (Bemisia tabaci)” value is on record as “high pesticidal efficacy”.

On to `CCc1cnccc1-c1nc2cc(C(F)(F)F)cnc2o1` [Compound 143, 2-(3-ethylpyridin-4-yl)-6-(trifluoromethyl)oxazolo[5,4-b]pyridine], for which, in experiment [1], the “pesticidal efficacy … (Nilaparvata lugens)” value is “high pesticidal efficacy”. The “pesticidal efficacy … (Bemisia tabaci)” value in experiment [2] is “high pesticidal efficacy”.

As for `FC(F)(F)c1ccc2oc(-c3ccncc3-c3cccnc3)nc2c1` [Compound 128, 4-(5-trifluoromethyl-benzoxazole-2-yl)-[3,3]bipyridinyl], the “pesticidal efficacy … (Nilaparvata lugens)” value in experiment [1] is listed as “high pesticidal efficacy”. In addition, the “pesticidal efficacy … (Bemisia tabaci)” value in experiment [2] is on record as “high pesticidal efficacy”.

As to `FC(F)(F)COc1cnccc1-c1nc2cc(C(F)(F)F)ccc2o1` [Compound 39, 2-[3-(2,2,2-trifluoroethyl)oxypyridin-4-yl]-5-(trifluoromethyl)benzoxazole], the “pesticidal efficacy … (Bemisia tabaci)” value in experiment [3] is “high pesticidal efficacy”. For the same compound, in experiment [4], the “pesticidal efficacy … (Nilaparvata lugens)” value was “high pesticidal efficacy”.

As to `FC(F)(F)COc1cnccc1-c1nc2cc(C(F)(F)F)cnc2o1` [Compound 163], in experiment [3], the “pesticidal efficacy … (Bemisia tabaci)” value was “high pesticidal efficacy”. Further, the “pesticidal efficacy … (Nilaparvata lugens)” value in experiment [4] is reported as “high pesticidal efficacy”.

For the compound `CC(C)Oc1cnccc1-c1nc2cc(C(F)(F)F)ccc2o1` [Compound 70, 2-(3-isopropoxypyridin-4-yl)-5-(trifluoromethyl)benzoxazole], the “pesticidal efficacy … (Nilaparvata lugens)” value in experiment [1] is recorded as “high pesticidal efficacy”. Also, in experiment [2], the “pesticidal efficacy … (Bemisia tabaci)” value was “high pesticidal efficacy”.

In the case of `FC(F)(F)c1ccc2oc(-c3ccncc3Cl)nc2c1` [Compound 18, 2-(3-chloropyridin-4-yl)-5-(trifluoromethyl)benzoxazole], in experiment [1], the “pesticidal efficacy … (Nilaparvata lugens)” value is recorded as “high pesticidal efficacy”. For the same compound, in experiment [2], the “pesticidal efficacy … (Bemisia tabaci)” value is “high pesticidal efficacy”.

As for `CCc1cnccc1-c1nc2cc(OC(F)(F)F)ccc2o1` [Compound 109, 2-(3-ethylpyridin-4-yl)-5-(trifluoromethoxy)benzoxazole], in experiment [1], the “pesticidal efficacy … (Nilaparvata lugens)” value is reported as “high pesticidal efficacy”. Besides, the “pesticidal efficacy … (Bemisia tabaci)” value in experiment [2] is “high pesticidal efficacy”.

Consider `CC(C)COc1cnccc1-c1nc2cc(C(F)(F)F)ccc2o1` [Compound 116, 2-(3-isobutoxypyridin-4-yl)-5-(trifluoromethyl)benzoxazole], for which, in experiment [3], the “pesticidal efficacy … (Bemisia tabaci)” value is given as “high pesticidal efficacy”. In experiment [4], the “pesticidal efficacy … (Nilaparvata lugens)” value is given as “high pesticidal efficacy”.

`CC(C)(C)COc1cnccc1-c1nc2cc(C(F)(F)F)ccc2o1` [Compound 117, 2-[3-(2,2-dimethylpropoxy)pyridin-4-yl]-5-(trifluoromethyl)benzoxazole]: in experiment [3], the “pesticidal efficacy … (Bemisia tabaci)” value was “high pesticidal efficacy”. Besides, the “pesticidal efficacy … (Nilaparvata lugens)” value in experiment [4] is recorded as “high pesticidal efficacy”.
